Measurements reported in patent publication US7615639B2, “1-pyridyl-benzofuro[3,2-b]pyridin-2(1H)-ones” (Tibotec Pharmaceuticals, Ltd., priority 2004, dated 2009).

Tested on: HIV
Experiment: Cellular assay: anti-viral activity in HIV-infected MT4 cells (MTT read-out)
Assay type: cell-based
Conditions: Human immunodeficiency virus 1, 120 h, five days incubation, MTT cell viability, negative logarithm of EC50 (protection of 50% of cells from cytopathogenic effect of the virus)
Experimental: The compounds of the present invention were examined for anti-viral activity in a cellular assay, which was performed according to the following procedure.
HIV- or mock-infected MT4 cells were incubated for five days in the presence of various concentrations of the inhibitor. At the end of the incubation period, the replicating virus in the control cultures has killed all HIV-infected cells in the absence of any inhibitor. Cell viability was determined by measuring the concentration of MTT, a yellow, water soluble tetrazolium dye that is converted to a purple, water insoluble formazan in the mitochondria of living cells only. Upon solubilization of the resulting formazan crystals with isopropanol, the absorbance of the solution was monitored at 540 nm. The values correlate directly to the number of living cells remaining in the culture at the completion of the five day incubation. The inhibitory activity of the compound was monitored on the virus-infected cells and was expressed as EC50 and EC90. These values represent the amount of the compound required to protect 50% and 90%, respectively, of the cells from the cytopathogenic effect of the virus. The toxicity of the compound was measured on the mock-infected cells and was expressed as CC50, which represents the concentration of compound required to inhibit the growth of the cells by 50%. The selectivity index (SI) (ratio CC50/EC50) is an indication of the selectivity of the anti-HIV activity of the inhibitor. Wherever results are reported as e.g. pEC50 or pCC50 values, the result is expressed as the negative logarithm of the result expressed as EC50 or CC50 respectively.

`Cn1c2ccccc2c2c1cc(C#N)c(=O)n2-c1cncnc1` [Compound 11] showed an EC50 of 20 µM.
Compound `Cn1c2ccccc2c2c1cc(C#N)c(=O)n2-c1cnc2ccccc2c1` [Compound 9] has an EC50 of 2.51 µM.
`Cn1c2ccccc2c2c1cc(C#N)c(=O)n2-c1ccc(C#N)nc1` [Compound 14] was tested, and the EC50 was 10 µM.
For `Cc1ccc(-n2c(=O)c(C#N)cc3c2c2ccccc2n3C)cn1` [Compound 32, 5-Methyl-1-(6-methyl-pyridin-3-yl)-2-oxo-2,5-dihydro-1H-pyrido[3,2-b]indole-3-carbonitrile], the EC50 was 1 µM.
Work on `N#Cc1cc2[nH]c3ccccc3c2n(-c2ccnc(Cl)c2)c1=O` [Compound 19] yielded an EC50 of 15.8 µM.
`Cn1c2ccccc2c2c1cc(C#N)c(=O)n2-c1ccnc(C(N)=O)c1` [Compound 20] showed an EC50 of 5.01 µM.
`Cn1ccc2cc(-n3c(=O)ccc4c3c3ccccc3n4C)ccc21` [Compound 17] showed an EC50 of 6.31 µM.
For `Cn1c2ccccc2c2c1ccc(=O)n2-c1cc2ccccc2s1` [Compound 6], the EC50 was 12.6 µM.
With `Cn1c2ccccc2c2c1cc(C#N)c(=O)n2-c1ccc(Br)nc1` [Compound 28] the EC50 was 3.16 µM.
For `Cn1c2ccccc2c2c1cc(C#N)c(=O)n2-c1ccc(Cl)nc1` [Compound 7, 1-(6-Chloropyridin-3-yl)-5-methyl-2-oxo-2,5-dihydro-1H-pyrido[3,2-b]indole-3-carbonitrile], the EC50 was 0.794 µM.
For `Cn1c2ccccc2c2c1cc(C#N)c(=O)n2-c1ccc(F)nc1` [Compound 36], the EC50 was 7.94 µM.
For `N#Cc1cc2[nH]c3ccccc3c2n(-c2ccc(Cl)nc2)c1=O` [Compound 26], the EC50 was 2.51 µM.
For `Cn1c2ccccc2c2c1cc(C#N)c(=O)n2-c1ccc2nc(C(F)(F)F)cn2c1` [Compound 21], the EC50 was 12.6 µM.
In the case of `COc1ncc(-n2c(=O)c(C#N)cc3c2c2ccccc2n3C)cn1` [Compound 37], the EC50 is reported as 2.51 µM.
Work on `COc1ccc(-n2c(=O)c(C#N)cc3c2c2ccccc2n3C)cn1` [Compound 35] yielded an EC50 of 3.16 µM.
`Cn1c2ccccc2c2c1ccc(=O)n2-c1cnc2ccccc2c1` [Compound 27] showed an EC50 of 6.31 µM.
In the case of `Cc1cc(-n2c(=O)c(C#N)cc3c2c2ccccc2n3C)cnc1Cl` [Compound 34, 1-(6-Chloro-5-methyl-pyridin-3-yl)-5-methyl-2-oxo-2,5-dihydro-1H-pyrido[3,2-b]-indole-3-carbonitrile], the EC50 is reported as 0.794 µM.
`Cn1c2ccc(O)cc2c2c1cc(C#N)c(=O)n2-c1ccc(Cl)nc1` [Compound 43, 1-(6-Chloro-pyridin-3-yl)-8-hydroxy-5-methyl-2-oxo-2,5-dihydro-1H-pyrido[3,2-b]-indole-3-carbonitrile] showed an EC50 of 3.98 µM.
